ChEMBL document CHEMBL1132606, “Use of a pharmacophore model for the design of EGFR tyrosine kinase inhibitors: isoflavones and 3-phenyl-4(1H)-quinolones” (J Med Chem, 1999)

What was measured:
[1] = target: T1, Epidermal growth factor receptor (Homo sapiens, UniProt P00533); test: Inhibition of Epidermal growth factor receptor
[2] = target: Proto-oncogene tyrosine-protein kinase Src (Homo sapiens, UniProt P12931); test: Inhibition of p60 c-Src tyrosine kinase
[3] = target: Protein kinase C alpha type (Homo sapiens, UniProt P17252); test: Inhibition of Protein kinase C alpha
[4] = target: Tyrosine-protein kinase ABL (Homo sapiens, UniProt P00519+P42684); test: Inhibition of v-Abl tyrosine kinase; assay type: protein assay
[5] = target: Platelet-derived growth factor receptor (Homo sapiens, UniProt P09619+P16234); test: Inhibition of Platelet-derived growth factor receptor-dependent phosphorylation; assay type: protein-complex assay
[6] = target: T1, Epidermal growth factor receptor; test: Inhibition of Epidermal growth factor receptor-dependent phosphorylation

T1 sequence (P00533 whole entry): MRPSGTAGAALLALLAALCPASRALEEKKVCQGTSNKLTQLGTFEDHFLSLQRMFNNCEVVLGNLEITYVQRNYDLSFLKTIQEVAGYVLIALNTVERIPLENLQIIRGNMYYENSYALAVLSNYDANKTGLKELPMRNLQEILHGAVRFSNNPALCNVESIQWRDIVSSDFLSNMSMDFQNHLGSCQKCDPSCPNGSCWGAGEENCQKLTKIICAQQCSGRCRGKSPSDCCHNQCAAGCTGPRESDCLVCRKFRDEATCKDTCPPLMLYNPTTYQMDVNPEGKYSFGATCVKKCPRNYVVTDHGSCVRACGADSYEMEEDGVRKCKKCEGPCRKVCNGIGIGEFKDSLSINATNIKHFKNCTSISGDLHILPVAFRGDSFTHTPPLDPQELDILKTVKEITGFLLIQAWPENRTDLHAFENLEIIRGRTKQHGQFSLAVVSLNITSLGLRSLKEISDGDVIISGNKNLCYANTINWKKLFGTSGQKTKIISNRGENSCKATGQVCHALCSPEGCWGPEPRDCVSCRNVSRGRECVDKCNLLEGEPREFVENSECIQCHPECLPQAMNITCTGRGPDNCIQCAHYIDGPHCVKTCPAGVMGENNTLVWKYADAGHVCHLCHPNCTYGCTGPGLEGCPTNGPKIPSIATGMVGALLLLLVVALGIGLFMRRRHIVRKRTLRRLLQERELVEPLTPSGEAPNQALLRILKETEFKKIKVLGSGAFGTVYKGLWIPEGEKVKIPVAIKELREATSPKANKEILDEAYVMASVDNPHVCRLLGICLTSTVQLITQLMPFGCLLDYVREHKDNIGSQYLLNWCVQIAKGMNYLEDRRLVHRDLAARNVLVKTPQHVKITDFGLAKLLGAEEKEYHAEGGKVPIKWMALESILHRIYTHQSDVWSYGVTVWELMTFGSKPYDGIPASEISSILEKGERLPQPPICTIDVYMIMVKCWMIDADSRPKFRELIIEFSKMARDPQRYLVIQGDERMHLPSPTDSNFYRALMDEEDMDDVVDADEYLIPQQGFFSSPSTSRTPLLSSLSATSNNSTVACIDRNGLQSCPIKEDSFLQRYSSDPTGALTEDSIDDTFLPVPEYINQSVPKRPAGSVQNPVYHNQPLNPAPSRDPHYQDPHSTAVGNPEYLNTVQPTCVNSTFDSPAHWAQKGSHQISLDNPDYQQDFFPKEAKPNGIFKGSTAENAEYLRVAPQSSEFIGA
Proto-oncogene tyrosine-protein kinase Src, sequence (P12931 2-536 limits assumed): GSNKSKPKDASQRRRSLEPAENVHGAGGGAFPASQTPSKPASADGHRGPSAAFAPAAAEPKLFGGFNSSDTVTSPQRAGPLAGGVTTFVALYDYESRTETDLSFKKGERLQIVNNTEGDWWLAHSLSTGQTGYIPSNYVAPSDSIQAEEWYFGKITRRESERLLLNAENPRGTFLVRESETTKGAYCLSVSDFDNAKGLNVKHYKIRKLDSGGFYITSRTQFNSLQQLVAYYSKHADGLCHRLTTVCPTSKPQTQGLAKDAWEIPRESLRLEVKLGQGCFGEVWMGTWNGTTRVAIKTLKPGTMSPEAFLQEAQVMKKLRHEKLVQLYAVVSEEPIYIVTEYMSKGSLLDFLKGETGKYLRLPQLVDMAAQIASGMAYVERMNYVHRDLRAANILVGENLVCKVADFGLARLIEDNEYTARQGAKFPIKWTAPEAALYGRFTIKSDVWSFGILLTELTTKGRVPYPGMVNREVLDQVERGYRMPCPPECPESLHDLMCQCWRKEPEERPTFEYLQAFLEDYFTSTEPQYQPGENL

Compound	IC50 [1] [µM]	IC50 [2] [µM]	IC50 [3] [µM]	IC50 [4] [µM]	IC50 [5] [µM]	IC50 [6] [µM]
COC(=O)Cn1cc(-c2cccc(Cl)c2)c(=O)c2c(O)cc(OC)cc21	–	> 10	> 100	> 10	> 10	–
COc1cc2ncnc(Nc3cccc(Cl)c3)c2cc1OC [TYRPHOSTIN AG-1478]	–	2.7	> 100	–	> 10	–
COc1cc(O)c2c(O)c(-c3cccc(Cl)c3)cnc2c1	0.038	> 100	> 100	> 100	> 10	6
COc1cc(O)c2c(=O)c(-c3cccc(Cl)c3)cn(C)c2c1	0.17	> 10	> 100	> 10	> 10	3
Oc1c(-c2cccc(Cl)c2)cnc2ccccc12	> 100	–	–	–	–	–
COc1cc(O)c2c(=O)c(-c3cccc(Cl)c3)cn(CCc3ccccc3)c2c1	4	–	–	–	> 10	1.5

Further lines, results first:

IC50 [1] [µM]	IC50 [2] [µM]	IC50 [3] [µM]	IC50 [4] [µM]	IC50 [5] [µM]	IC50 [6] [µM]	Compound
58.8	–	–	–	–	–	O=c1c(-c2cccc(Cl)c2)coc2cc(O)ccc12
0.095	> 100	> 100	20	> 10	12	O=c1c(-c2cccc(Cl)c2)coc2cc(O)cc(O)c12
1.27	> 100	> 100	> 100	> 10	> 100	COc1cc(O)c2c(=O)c(-c3cccc(Cl)c3)coc2c1
0.008	8	> 100	> 10	> 10	2	Oc1cc(O)c2c(O)c(-c3cccc(Cl)c3)cnc2c1
500	–	–	–	> 10	> 100	COc1cc(OC)c2c(=O)c(-c3cccc(Cl)c3)coc2c1
–	> 10	> 100	> 10	–	–	O=c1c(-c2ccc(O)cc2)coc2cc(O)cc(O)c12 [GENISTEIN]
